pIC50: −log10 of the molar value. Where a SMILES comes first, the peptide text is derived from it. Bridges are numbered along the chain shown (N, C = ends). [ ]: non-standard residue; d: D form. Nle = CCCC[C@H](N)C(=O)O
What was measured:
Rat whole blood = Rat whole blood (Rattus norvegicus, UniProt P15384); format: cell-based; settings: IL-17A release, thapsigargin, 24 Hr, at least 2 replicates
human Kv1.2 = biological target: T1, human Kv1.2 (Homo sapiens, UniProt P16389); test: cell-based; settings: ratio of patch clamp IC50 values
T1 construct: expressed in transfected cells; host or cells: CHO
T1 sequence (P16389 whole entry): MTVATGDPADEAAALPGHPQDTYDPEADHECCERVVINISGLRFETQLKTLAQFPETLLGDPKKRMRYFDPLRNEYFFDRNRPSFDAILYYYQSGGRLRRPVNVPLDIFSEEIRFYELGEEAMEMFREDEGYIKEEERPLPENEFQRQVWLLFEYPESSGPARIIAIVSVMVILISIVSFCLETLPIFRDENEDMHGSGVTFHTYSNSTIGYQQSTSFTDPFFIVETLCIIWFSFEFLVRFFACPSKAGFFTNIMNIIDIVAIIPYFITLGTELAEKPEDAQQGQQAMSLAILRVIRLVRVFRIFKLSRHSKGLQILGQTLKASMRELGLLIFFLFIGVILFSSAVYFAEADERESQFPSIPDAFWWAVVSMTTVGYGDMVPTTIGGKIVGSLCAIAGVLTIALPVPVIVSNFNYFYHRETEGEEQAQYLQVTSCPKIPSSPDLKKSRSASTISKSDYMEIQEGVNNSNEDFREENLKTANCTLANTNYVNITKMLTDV

human Kv1.1 = biological target: T2, human Kv1.1 (Homo sapiens, UniProt Q09470); test: cell-based; settings: ratio of patch clamp IC50 values
T2 construct: expressed in transfected cells; host or cells: CHO
T2 sequence (Q09470 whole entry): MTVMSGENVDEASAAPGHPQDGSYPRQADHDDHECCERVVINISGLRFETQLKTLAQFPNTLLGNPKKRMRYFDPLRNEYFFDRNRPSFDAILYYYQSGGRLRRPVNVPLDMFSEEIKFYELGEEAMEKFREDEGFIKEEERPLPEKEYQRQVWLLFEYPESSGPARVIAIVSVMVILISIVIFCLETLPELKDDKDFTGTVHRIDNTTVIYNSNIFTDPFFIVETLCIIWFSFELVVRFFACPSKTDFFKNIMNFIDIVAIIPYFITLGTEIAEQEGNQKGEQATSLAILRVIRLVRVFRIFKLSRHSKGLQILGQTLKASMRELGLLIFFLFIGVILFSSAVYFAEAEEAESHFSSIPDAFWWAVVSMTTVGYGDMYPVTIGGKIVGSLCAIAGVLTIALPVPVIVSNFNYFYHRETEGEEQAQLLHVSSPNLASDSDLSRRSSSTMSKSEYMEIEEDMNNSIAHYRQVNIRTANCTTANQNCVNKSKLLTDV

human Kv1.6 = biological target: T3, human Kv1.6 (Homo sapiens, UniProt P17658); test: cell-based; settings: ratio of patch clamp IC50 values
T3 construct: expressed in transfected cells; host or cells: CHO
T3 sequence (P17658 whole entry): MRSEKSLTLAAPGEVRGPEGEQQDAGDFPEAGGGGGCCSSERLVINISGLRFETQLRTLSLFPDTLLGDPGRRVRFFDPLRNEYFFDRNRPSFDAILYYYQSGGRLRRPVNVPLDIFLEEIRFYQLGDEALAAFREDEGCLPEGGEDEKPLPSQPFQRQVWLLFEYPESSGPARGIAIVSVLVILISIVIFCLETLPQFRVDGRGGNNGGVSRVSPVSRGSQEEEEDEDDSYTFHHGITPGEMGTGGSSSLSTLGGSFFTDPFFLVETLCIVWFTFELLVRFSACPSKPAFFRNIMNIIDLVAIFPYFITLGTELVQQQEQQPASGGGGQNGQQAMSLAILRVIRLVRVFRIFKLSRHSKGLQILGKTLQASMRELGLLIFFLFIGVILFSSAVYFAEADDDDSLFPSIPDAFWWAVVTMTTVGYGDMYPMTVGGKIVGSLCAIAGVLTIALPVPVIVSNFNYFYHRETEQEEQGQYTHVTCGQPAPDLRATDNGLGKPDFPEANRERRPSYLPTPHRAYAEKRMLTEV

Rat whole blood, sequence (P15384 whole entry): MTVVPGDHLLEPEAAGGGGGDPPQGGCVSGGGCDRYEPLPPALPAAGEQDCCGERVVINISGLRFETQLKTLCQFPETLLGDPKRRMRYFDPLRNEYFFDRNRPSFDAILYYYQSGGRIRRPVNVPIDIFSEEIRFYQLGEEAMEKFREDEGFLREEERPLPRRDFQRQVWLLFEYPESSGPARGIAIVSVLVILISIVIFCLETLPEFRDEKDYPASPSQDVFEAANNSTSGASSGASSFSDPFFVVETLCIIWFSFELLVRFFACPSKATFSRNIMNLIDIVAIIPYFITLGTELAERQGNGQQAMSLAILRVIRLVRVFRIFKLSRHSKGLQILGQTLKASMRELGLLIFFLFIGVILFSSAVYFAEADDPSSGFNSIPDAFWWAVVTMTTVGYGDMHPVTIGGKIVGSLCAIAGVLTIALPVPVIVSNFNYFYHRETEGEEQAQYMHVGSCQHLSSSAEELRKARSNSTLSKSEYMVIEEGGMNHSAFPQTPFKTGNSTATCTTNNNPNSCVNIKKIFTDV

Row | SMILES | pIC50 (Rat whole blood) | Selectivity ratio Kv1.2/Kv1.3 (human Kv1.2) | Selectivity ratio Kv1.1/Kv1.3 (human Kv1.1) | Selectivity ratio Kv1.6/Kv1.3 (human Kv1.6)
1 | CCCC[C@@H]1NC(=O)[C@@H]2CSSC[C@H](NC(=O)[C@H](CCCNC(=N)N)NC(=O)[C@H](CC(C)C)NC(C)=O)C(=O)N[C@@H](CO)C(=O)N[C@@H](C)C(=O)N[C@@H](CO)C(=O)N[C@@H](C(C)C)C(=O)N[C@@H](CCC(=O)O)C(=O)N[C@H]3CSSC[C@H](NC(=O)[C@H](CCCCN)NC(=O)[C@H](CCCCN)NC(=O)[C@H](CC(N)=O)NC1=O)C(=O)N[C@@H](CCCCN)C(=O)N[C@H](C(=O)N[C@@H](Cc1ccc(O)cc1)C(=O)N1CCC[C@H]1C(=O)N[C@@H](CCCNC(=N)N)C(N)=O)CSSC[C@H](NC(=O)[C@H](CCCCN)NC(=O)[C@H](CCC(N)=O)NC(=O)[C@H](CCCCN)NC3=O)C(=O)N[C@@H](CC(C)C)C(=O)N[C@@H](CCCCN)C(=O)N[C@@H](C)C(=O)N[C@@H]([C@@H](C)CC)C(=O)NCC(=O)N[C@@H](CO)C(=O)N[C@@H]([C@@H](C)CC)C(=O)N[C@@H](Cc1ccccc1)C(=O)NCC(=O)N[C@@H](CCCCN)C(=O)N2 [compound 102] (Ac-LRCSASVECKQKCLKAIGSIFGKC[Nle]NKKCKCYPR-NH2; disulfide 3-24, 9-29, 13-31) | 9.43 | 352 | >8700 | 7096
2 | CC[C@H](C)[C@@H]1NC(=O)[C@H](C)NC(=O)[C@H](CCCCN)NC(=O)[C@H](CC(C)C)NC(=O)[C@@H]2CSSC[C@@H](C(=O)N[C@@H](Cc3ccc(O)cc3)C(=O)N3CCC[C@H]3C(=O)N[C@@H](CCCNC(=N)N)C(N)=O)NC(=O)[C@H](CCCCN)NC(=O)[C@@H]3CSSC[C@H](NC(=O)[C@H](CCC(=O)O)NC(=O)[C@H](C(C)C)NC(=O)[C@H](CO)NC(=O)[C@H](C)NC(=O)[C@H](CO)NC(=O)[C@@H](NC(=O)[C@H](CCCNC(=N)N)NC(=O)[C@H](CCSC)NC(=O)[C@H](CC(=O)O)NC(=O)[C@H](CCSC)NC(=O)[C@@H](N)CC(N)=O)CSSC[C@H](NC(=O)[C@H](CCCCN)NC(=O)CNC(=O)[C@H](Cc4ccccc4)NC(=O)[C@H](CCCCN)NC(=O)[C@H](CO)NC(=O)CNC1=O)C(=O)N[C@@H](CCSC)C(=O)N[C@@H](CC(N)=O)C(=O)N[C@@H](CCCCN)C(=O)N[C@@H](CCCCN)C(=O)N3)C(=O)N[C@@H](CCCCN)C(=O)N[C@@H](CCC(N)=O)C(=O)N[C@@H](CCCCN)C(=O)N2 [compound 38] (H-NMDMRCSASVECKQKCLKAIGSKFGKCMNKKCKCYPR-NH2; disulfide 6-27, 12-32, 16-34) | 8.68 | 237 | >7100 | 490
3 | CCCC[C@H](NC(=O)[C@@H](N)CO)C(=O)N[C@@H](CC(=O)O)C(=O)N[C@@H](CCC(=O)O)C(=O)N[C@@H](CCCNC(=N)N)C(=O)N[C@H]1CSSC[C@@H]2NC(=O)[C@H](CCCCN)NC(=O)CNC(=O)[C@H](Cc3ccccc3)NC(=O)[C@H]([C@@H](C)CC)NC(=O)[C@H](CO)NC(=O)CNC(=O)[C@H]([C@@H](C)CC)NC(=O)[C@H](C)NC(=O)[C@H](CCCCN)NC(=O)[C@H](CC(C)C)NC(=O)[C@@H]3CSSC[C@@H](C(=O)N[C@@H](Cc4ccc(O)cc4)C(=O)N4CCC[C@H]4C(=O)N[C@@H](CCCNC(=N)N)C(N)=O)NC(=O)[C@H](CCCCN)NC(=O)[C@H](CSSC[C@H](NC(=O)[C@H](CCC(=O)O)NC(=O)[C@H](C(C)C)NC(=O)[C@H](CO)NC(=O)[C@H](C)NC(=O)[C@H](CO)NC1=O)C(=O)N[C@@H](CCCCN)C(=O)N[C@@H](CCC(N)=O)C(=O)N[C@@H](CCCCN)C(=O)N3)NC(=O)[C@H](CCCCN)NC(=O)[C@H](CCCCN)NC(=O)[C@H](CC(N)=O)NC(=O)[C@H](CCSC)NC2=O [compound 76] (H-S[Nle]DERCSASVECKQKCLKAIGSIFGKCMNKKCKCYPR-NH2; disulfide 6-27, 12-32, 16-34) | 9.26 | 430 | >10600 | >10600
4 | CCCC[C@H](NC(=O)[C@H](CC(=O)O)NC(=O)[C@H](CCCC)NC(=O)[C@@H](N)CO)C(=O)N[C@@H](CCCNC(=N)N)C(=O)N[C@H]1CSSC[C@@H]2NC(=O)[C@H](CCCCN)NC(=O)CNC(=O)[C@H](Cc3ccccc3)NC(=O)[C@H]([C@@H](C)CC)NC(=O)[C@H](CO)NC(=O)CNC(=O)[C@H]([C@@H](C)CC)NC(=O)[C@H](C)NC(=O)[C@H](CCCCN)NC(=O)[C@H](CC(C)C)NC(=O)[C@@H]3CSSC[C@@H](C(=O)N[C@@H](Cc4ccc(O)cc4)C(=O)N4CCC[C@H]4C(=O)N[C@@H](CCCNC(=N)N)C(N)=O)NC(=O)[C@H](CCCCN)NC(=O)[C@H](CSSC[C@H](NC(=O)[C@H](CCC(=O)O)NC(=O)[C@H](C(C)C)NC(=O)[C@H](CO)NC(=O)[C@H](C)NC(=O)[C@H](CO)NC1=O)C(=O)N[C@@H](C)C(=O)N[C@@H](CCC(N)=O)C(=O)N[C@@H](CO)C(=O)N3)NC(=O)[C@H](CCCCN)NC(=O)[C@H](CCCCN)NC(=O)[C@H](CC(N)=O)NC(=O)[C@H](CCSC)NC2=O [compound 78] (H-S[Nle]D[Nle]RCSASVECAQSCLKAIGSIFGKCMNKKCKCYPR-NH2; disulfide 6-27, 12-32, 16-34) |  | 5596 | >14600 | >14600
5 | CC[C@H](C)[C@@H]1NC(=O)[C@H](CCCNC(=N)N)NC(=O)[C@H](CCCCN)NC(=O)[C@H](CC(C)C)NC(=O)[C@@H]2CSSC[C@@H](C(=O)N[C@@H](Cc3ccc(O)cc3)C(=O)N3CCC[C@H]3C(=O)N[C@@H](CCCNC(=N)N)C(N)=O)NC(=O)[C@H](CCCCN)NC(=O)[C@@H]3CSSC[C@H](NC(=O)[C@H](CCC(=O)O)NC(=O)[C@H](C(C)C)NC(=O)[C@H](CO)NC(=O)[C@H](C)NC(=O)[C@H](CO)NC(=O)[C@@H](NC(=O)[C@H](CCCNC(=N)N)NC(=O)[C@H](CCSC)NC(=O)[C@H](CC(=O)O)NC(=O)[C@H](CCSC)NC(=O)[C@@H](N)CC(N)=O)CSSC[C@H](NC(=O)[C@H](CCCCN)NC(=O)CNC(=O)[C@H](Cc4ccccc4)NC(=O)[C@H]([C@@H](C)CC)NC(=O)[C@H](CO)NC(=O)CNC1=O)C(=O)N[C@@H](CCSC)C(=O)N[C@@H](CC(N)=O)C(=O)N[C@@H](CCCCN)C(=O)N[C@@H](CCCCN)C(=O)N3)C(=O)N[C@@H](CCCCN)C(=O)N[C@@H](CCC(N)=O)C(=O)N[C@@H](CCCCN)C(=O)N2 [compound 60] (H-NMDMRCSASVECKQKCLKRIGSIFGKCMNKKCKCYPR-NH2; disulfide 6-27, 12-32, 16-34) |  | 187 | >9900 | 3062
6 | CC[C@H](C)[C@@H]1NC(=O)[C@H](C)NC(=O)[C@H](CC(C)C)NC(=O)[C@@H]2CSSC[C@@H](C(=O)N[C@@H](Cc3ccc(O)cc3)C(=O)N3CCC[C@H]3C(=O)N[C@@H](CCCNC(=N)N)C(N)=O)NC(=O)[C@H](CCCCN)NC(=O)[C@@H]3CSSC[C@H](NC(=O)[C@H](CCC(=O)O)NC(=O)[C@H](C(C)C)NC(=O)[C@H](CO)NC(=O)[C@H](C)NC(=O)[C@H](CO)NC(=O)[C@@H](NC(=O)[C@H](CCCNC(=N)N)NC(=O)[C@H](CCSC)NC(=O)[C@H](CC(=O)O)NC(=O)[C@H](CCSC)NC(=O)[C@@H](N)CC(N)=O)CSSC[C@H](NC(=O)[C@H](CCCCN)NC(=O)CNC(=O)[C@H](Cc4ccccc4)NC(=O)[C@H]([C@@H](C)CC)NC(=O)[C@H](CO)NC(=O)CNC1=O)C(=O)N[C@@H](CCSC)C(=O)N[C@@H](CC(N)=O)C(=O)N[C@@H](CCCCN)C(=O)N[C@@H](CCCCN)C(=O)N3)C(=O)N[C@@H](CCCCN)C(=O)N[C@@H](CCC(N)=O)C(=O)N[C@@H](CCCCN)C(=O)N2 [compound 58] (H-NMDMRCSASVECKQKCLAIGSIFGKCMNKKCKCYPR-NH2; disulfide 6-26, 12-31, 16-33) |  | 121 | >1200 | >1200
7 | CC[C@H](C)[C@@H]1NC(=O)[C@H](C)NC(=O)[C@H](CCCCN)NC(=O)[C@H](CC(C)C)NC(=O)[C@@H]2CSSC[C@@H](C(=O)N[C@@H](Cc3ccc(O)cc3)C(=O)N3CCC[C@H]3C(=O)N[C@@H](CCCNC(=N)N)C(=O)O)NC(=O)[C@H](CCCCN)NC(=O)[C@@H]3CSSC[C@H](NC(=O)[C@H](CCC(=O)O)NC(=O)[C@H](C(C)C)NC(=O)[C@H](CO)NC(=O)[C@H](C)NC(=O)[C@H](CO)NC(=O)[C@@H](NC(=O)[C@H](CCCNC(=N)N)NC(=O)[C@H](CCSC)NC(=O)[C@H](CC(=O)O)NC(=O)[C@@H](N)CCSC)CSSC[C@H](NC(=O)[C@H](CCCCN)NC(=O)CNC(=O)[C@H](Cc4ccccc4)NC(=O)[C@H]([C@@H](C)CC)NC(=O)[C@H](CO)NC(=O)CNC1=O)C(=O)N[C@@H](CCSC)C(=O)N[C@@H](CC(N)=O)C(=O)N[C@@H](CCCCN)C(=O)N[C@@H](CCCCN)C(=O)N3)C(=O)N[C@@H](CCCCN)C(=O)N[C@@H](CCC(N)=O)C(=O)N[C@@H](CCCCN)C(=O)N2 [compound 18] (H-MDMRCSASVECKQKCLKAIGSIFGKCMNKKCKCYPR-OH; disulfide 5-26, 11-31, 15-33) |  | 747 | >7900 | >7900
